Measured values: US20060024392A1, “Compositions and methods for enhancing the effectiveness of a chemotherapeutic agent” (priority 2004, published 2006)

Key:
colon cancer = details: clinical treatment of colon cancer; cited from earlier work
HT29 colon cancer cells = assay: Sulforhodamine B (SRB) cell growth assay in HT29 colon cancer cells; format: cell-based
Method: HT-29, a cell line derived from colorectal adenocarcinoma (ATCC, HTB 38), grows in McCoy's 5A medium (Biowhittaker, Inc. Walkersville, Md.). NCM460, a cell line derived from a normal human colon (InCell Corp. San Antonio, Tex.), grows in M3 Base media (InCell Corp. San Antonio, Tex.).
Both cell lines are kept at 37° C. and 5% CO2 atmosphere. Both media are supplemented with 10% fetal bovine serum (FBS, Biowhittaker, Inc. Walkersville, Md.).
Cells are fixed in situ by the gentle addition of 50 μl of cold 50% (w/v) TCA (final concentration, 10% TCA) and incubated for 60 minutes at 4° C. The supernatant is discarded, and the plates are washed five times with tap water and air dried. Sulforhodamine B (SRB) solution (100 μl) at 0.4% (w/v) in 1% acetic acid is added to each well, and plates are incubated for 10 minutes at room temperature. After staining, unbound dye is removed by washing five times with 1% acetic acid and the plates are air dried. Bound stain is subsequently solubilized with 100 μl 10 mM trizma base for 5 minutes, and the absorbance at wavelength of 490 nm was spectrophotometrically measured using a microplate reader Elx800 (Bio-Tek instruments, Inc.).
Cells were seeded in 96-well cluster tissue culture plates (Costar), containing 100 μl complete growth medium per well at densities of 5,000 cells per well. Incubated at 37° C. in a humidified tissue culture incubator. After 24 Hour, 100 μl complete medium containing 5 half-log dilutions of the 5FU from 2*10^−4 to 2*10^−6 M was added into each well (final concentrations are from 10^−4 to 10^−6 M). Six replicates were used for each concentration. Media containing 0.125% DMSO was used as control. After 48 hours of incubation with 5FU in medium, cell proliferation was assessed using the SRB assay.
Percentage growth (Growth%) is calculated as: [(Ti−Tz)/(C−Tz)]×100 [absorbance measurements at time zero (Tz), control growth (C), and test growth in the presence of drug at the different concentration levels (Ti)].
Similar to the method used in testing GI50 of 5FU: HT29 was plated at 5000 cells per well. […] After 48 hour treatment, cell growth was assessed using SRB assay.
The protocol was the same as described above, except cells were exposed to 5FU at concentration ranging from 10^−4 to 10^−6 M with chokeberry ARE at concentration of 1.56, 5, 15.6, 50 μg monomeric anthocyanin/ml growth media.
The protocol was the similar to Experiment 1: Cells were exposed to half-log diluted SAC at concentration ranging from 3.2 to 1000 μM for 48 hour. Media containing 0.5% filtered water was used as control.
This experiment was to determine whether the antioxidant, SAC would enhance the effect of 5FU in HT29 cells. The protocol was the same as Experiment 3, except cells were exposed to 5FU at concentration ranging from 10^−4 to 10^−6 M with SAC at concentration of 10, 100, 1000 μM.

[1] = rats, 72 hours after 200 mg/kg 5FU i.p., AIN93 diet with or without 4 g anthocyanin/kg
[2] = 5FU 1.0E−4 M, 48 h, experiment 1
[3] = 5FU 1.0E−4 M, 48 h, experiment 2
[4] = 5FU 1.0E−4 M, 48 h, experiment 3
[5] = 5FU 1.0E−4 M, 48 h, experiment 4
[6] = 5FU 1.0E−4.5 M, 48 h, experiment 1
[7] = 5FU 1.0E−4.5 M, 48 h, experiment 2
[8] = 5FU 1.0E−4.5 M, 48 h, experiment 3
[9] = 5FU 1.0E−4.5 M, 48 h, experiment 4
[10] = 5FU 1.0E−5 M, 48 h, experiment 1
[11] = 5FU 1.0E−5 M, 48 h, experiment 2
[12] = 5FU 1.0E−5 M, 48 h, experiment 3
[13] = 5FU 1.0E−5 M, 48 h, experiment 4
[14] = 5FU 1.0E−5.5 M, 48 h, experiment 1
[15] = 5FU 1.0E−5.5 M, 48 h, experiment 2
[16] = 5FU 1.0E−5.5 M, 48 h, experiment 3
[17] = 5FU 1.0E−5.5 M, 48 h, experiment 4
[18] = 5FU 1.0E−6 M, 48 h, experiment 1
[19] = 5FU 1.0E−6 M, 48 h, experiment 2
[20] = 5FU 1.0E−6 M, 48 h, experiment 3
[21] = 5FU 1.0E−6 M, 48 h, experiment 4
[22] = Table 2: 5FU at 1.0E-4.368 M alone, 48 h
[23] = Table 6 (1): 5FU 1.00E−04 M, SAC 0
[24] = Table 6 (1): 5FU 1.00E−05 M, SAC 0
[25] = Table 6 (1): 5FU 1.00E−06 M, SAC 0
[26] = Table 6 (2): 5FU 1.00E−04 M, SAC 0
[27] = Table 6 (2): 5FU 1.00E−05 M, SAC 0
[28] = Table 6 (2): 5FU 1.00E−06 M, SAC 0

Description for male Sprague Dawley rats: The purpose of this experiment was to determine if the toxicity of 5FU would be decreased by feeding rats a diet supplemented with anthocyanin-rich extract (ARE) prior to and during 5FU treatment.
Rats were randomly allocated in two diet groups and maintained for two weeks on either AIN93 or AIN93 plus 4 g anthocyanin/kg (Table 7).
Seventy-two hours after the 5FU injections, rats were euthanized by CO2 inhalation. Blood was collected by heart puncture into heparinized tubes, the stomach and entire intestines were removed and stomach, duodenum, jejunum, ileum, cecum and colon sections were fixed in formalin for histopathological evaluation. In addition to the gastrointestinal tract, the following organs were also collected at necropsy for histopathological evaluation: heart, liver, kidney, spleen and bone marrow. These tissues were also fixed in formalin. All tissues were then routinely processed and stained with H&E for pathological evaluation.

O=c1[nH]cc(F)c(=O)[nH]1 [5FU, 5-fluorouracil]
response rate (colon cancer): 20%
clinical signs in preliminary experiment (male Sprague Dawley rats; 2 rats, 5FU 200 mg/kg): caused weight loss and diarrhea
bone marrow histopathology (male Sprague Dawley rats; [1]): panmyelophthisis of the bone marrow with congestion
kidney histopathology (male Sprague Dawley rats; [1]): acute toxic nephropathy of the proximal convoluted tubules was present in all 5FU treated animals in mild to moderate severity
small intestine histopathology (male Sprague Dawley rats; [1]): intestinal villi were moderately to severely denuded
overall histopathological changes in tissues (male Sprague Dawley rats; rats, 5FU 200 mg/kg i.p. or AIN93 plus 4 g anthocyanin/kg diet with saline): significant acute toxicological changes
Growth % (HT29 colon cancer cells; [2]): 48.88%
OD (HT29 colon cancer cells; [2]): 0.30
Growth % (HT29 colon cancer cells; [3]): 34.83%
OD (HT29 colon cancer cells; [3]): 0.25
Growth % (HT29 colon cancer cells; [4]): 37.16%
OD (HT29 colon cancer cells; [4]): 0.26
Growth % (HT29 colon cancer cells; [5]): 42.91%
OD (HT29 colon cancer cells; [5]): 0.25
Growth % (HT29 colon cancer cells; [6]): 54.63%
OD (HT29 colon cancer cells; [6]): 0.32
Growth % (HT29 colon cancer cells; [7]): 44.48%
OD (HT29 colon cancer cells; [7]): 0.27
Growth % (HT29 colon cancer cells; [8]): 43.58%
OD (HT29 colon cancer cells; [8]): 0.27
Growth % (HT29 colon cancer cells; [9]): 53.85%
OD (HT29 colon cancer cells; [9]): 0.27
Growth % (HT29 colon cancer cells; [10]): 60.38%
OD (HT29 colon cancer cells; [10]): 0.33
Growth % (HT29 colon cancer cells; [11]): 57.93%
OD (HT29 colon cancer cells; [11]): 0.31
Growth % (HT29 colon cancer cells; [12]): 56.76%
OD (HT29 colon cancer cells; [12]): 0.31
Growth % (HT29 colon cancer cells; [13]): 70.85%
OD (HT29 colon cancer cells; [13]): 0.32
Growth % (HT29 colon cancer cells; [14]): 82.11%
OD (HT29 colon cancer cells; [14]): 0.40
Growth % (HT29 colon cancer cells; [15]): 77.24%
OD (HT29 colon cancer cells; [15]): 0.37
Growth % (HT29 colon cancer cells; [16]): 76.69%
OD (HT29 colon cancer cells; [16]): 0.37
Growth % (HT29 colon cancer cells; [17]): 87.85%
OD (HT29 colon cancer cells; [17]): 0.36
Growth % (HT29 colon cancer cells; [18]): 94.25%
OD (HT29 colon cancer cells; [18]): 0.44
Growth % (HT29 colon cancer cells; [19]): 94.83%
OD (HT29 colon cancer cells; [19]): 0.42
Growth % (HT29 colon cancer cells; [20]): 88.51%
OD (HT29 colon cancer cells; [20]): 0.41
Growth % (HT29 colon cancer cells; [21]): 96.36%
OD (HT29 colon cancer cells; [21]): 0.38
growth inhibition (HT29 colon cancer cells; 5FU alone at GI50 concentration (FIG. 1)): 65%
Growth % (HT29 colon cancer cells; [22]): 35.02%
OD (HT29 colon cancer cells; [22]): 0.22
Growth % (HT29 colon cancer cells; Table 3: 5FU 1.0E−4 M, ARE 0): 29.77%
OD (HT29 colon cancer cells; Table 3: 5FU 1.0E−4 M, ARE 0): 0.20
Growth % (HT29 colon cancer cells; Table 3: 5FU 1.0E−5 M, ARE 0): 49.30%
OD (HT29 colon cancer cells; Table 3: 5FU 1.0E−5 M, ARE 0): 0.24
Growth % (HT29 colon cancer cells; Table 3: 5FU 1.0E−6 M, ARE 0): 82.33%
OD (HT29 colon cancer cells; Table 3: 5FU 1.0E−6 M, ARE 0): 0.31
Growth % (HT29 colon cancer cells; [23]): 27.44%
OD (HT29 colon cancer cells; [23]): 0.175
Growth % (HT29 colon cancer cells; [24]): 52.09%
OD (HT29 colon cancer cells; [24]): 0.228
Growth % (HT29 colon cancer cells; [25]): 91.63%
OD (HT29 colon cancer cells; [25]): 0.313
Growth % (HT29 colon cancer cells; [26]): 26.16%
OD (HT29 colon cancer cells; [26]): 0.178
Growth % (HT29 colon cancer cells; [27]): 43.46%
OD (HT29 colon cancer cells; [27]): 0.219
Growth % (HT29 colon cancer cells; [28]): 79.32%
OD (HT29 colon cancer cells; [28]): 0.304
growth of cells, % of control (HT29 colon cancer cells; highest concentration of 5FU alone): 30 % of control
growth of cells, % of control (HT29 colon cancer cells; intermediate concentration of 5FU alone): 50 % of control
growth of cells, % of control (HT29 colon cancer cells; lowest concentration of 5FU (10^−6 M) alone): 80 % of control
